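Five concentrations, 48 hours, 96-well plates. The concentration for 50% growth inhibition is given as GI50.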 Active and inactive are the calls of the source. No stated cut-off is given here; in the data, active = GI50 up to about 1.1 µM and inactive = higher.
How the values were obtained:
Assay in all cases: NCI-60 cell line screen, 48 h
SNB-75 = test system: SNB-75
HOP-92 = test system: HOP-92
OVCAR-4 = test system: OVCAR-4
OVCAR-5 = test system: OVCAR-5
MDA-MB-435 = test system: MDA-MB-435
SK-MEL-2 = test system: SK-MEL-2
786-0 = test system: 786-0
U-251 = test system: U-251
SR = test system: SR
SK-MEL-5 = test system: SK-MEL-5
TK-10 = test system: TK-10
SW-620 = test system: SW-620
Hs-578T = test system: Hs-578T
A498 = test system: A498
EKVX = test system: EKVX
OVCAR-3 = test system: OVCAR-3
SNB-19 = test system: SNB-19
MCF7 = test system: MCF7
COLO 205 = test system: COLO 205

Q: For COc1ccc(C2=NNC(=O)c3ccccc3N2c2nc(-c3cccs3)nc3ccc(Br)cc23)cc1, which GI50 (SNB-75) is on record?
A: 41.4 µM (inactive)

Q: What about the GI50 (HOP-92) of the same molecule?
A: > 100 µM (inactive)

Q: What about the GI50 (OVCAR-4) of the same molecule?
A: 39.8 µM (inactive)

Q: And the GI50 (OVCAR-5)?
A: 61.4 µM (inactive)

Q: And the GI50 (MDA-MB-435)?
A: > 100 µM (inactive)

Q: And the GI50 (SK-MEL-2)?
A: 78.9 µM (inactive)

Q: What about the GI50 (786-0) of the same molecule?
A: 25.8 µM (inactive)

Q: What about the GI50 (U-251) of the same molecule?
A: 28.8 µM (inactive)

Q: What about the GI50 (SR) of the same molecule?
A: 42 µM (inactive)

Q: And the GI50 (SK-MEL-5)?
A: > 100 µM (inactive)

Q: And the GI50 (TK-10)?
A: 28.2 µM (inactive)

Q: What about the GI50 (SW-620) of the same molecule?
A: 91.4 µM (inactive)

Q: What about the GI50 (Hs-578T) of the same molecule?
A: 35.1 µM (inactive)

Q: And the GI50 (A498)?
A: > 100 µM (inactive)

Q: And the GI50 (EKVX)?
A: 24.6 µM (inactive)

Q: What about the GI50 (OVCAR-3) of the same molecule?
A: 23 µM (inactive)

Q: And the GI50 (SNB-19)?
A: 30.1 µM (inactive)

Q: What about the GI50 (MCF7) of the same molecule?
A: 68.1 µM (inactive)

Q: And the GI50 (COLO 205)?
A: 73.8 µM (inactive)

Q: How did the GI50 (SNB-75) turn out when CC12CCc3ccccc3C1=Nc1ccccc12 (stereo not drawn) was run?
A: > 100 µM (inactive)

Q: What about the GI50 (HOP-92) of the same molecule?
A: 12.9 µM (inactive)

Q: What about the GI50 (OVCAR-4) of the same molecule?
A: 41.3 µM (inactive)

Q: And the GI50 (OVCAR-5)?
A: > 100 µM (inactive)

Q: And the GI50 (MDA-MB-435)?
A: 25.3 µM (inactive)

Q: And the GI50 (SK-MEL-2)?
A: 47.9 µM (inactive)

Q: And the GI50 (786-0)?
A: 49.2 µM (inactive)

Q: What about the GI50 (U-251) of the same molecule?
A: 44.6 µM (inactive)

Q: And the GI50 (SR)?
A: 45.3 µM (inactive)

Q: And the GI50 (SK-MEL-5)?
A: 12.6 µM (inactive)

Q: And the GI50 (TK-10)?
A: 53.8 µM (inactive)

Q: What about the GI50 (SW-620) of the same molecule?
A: 45.9 µM (inactive)

Q: What about the GI50 (Hs-578T) of the same molecule?
A: 2.14 µM (inactive)

Q: What about the GI50 (EKVX) of the same molecule?
A: 25.1 µM (inactive)

Q: What about the GI50 (OVCAR-3) of the same molecule?
A: 15.3 µM (inactive)

Q: What about the GI50 (SNB-19) of the same molecule?
A: > 100 µM (inactive)

Q: What about the GI50 (MCF7) of the same molecule?
A: 48.6 µM (inactive)

Q: What about the GI50 (COLO 205) of the same molecule?
A: 42.8 µM (inactive)

Q: Which results are given for Cn1c2ccccc2c(=O)c2c(O)cc3c(c21)C=CC1(CCCC1)O3?
A: GI50 (SNB-75): > 100 µM (inactive); GI50 (HOP-92): 25.7 µM (inactive); GI50 (OVCAR-4): 41.7 µM (inactive); GI50 (OVCAR-5): 33.7 µM (inactive); GI50 (MDA-MB-435): > 100 µM (inactive); GI50 (SK-MEL-2): > 100 µM (inactive); GI50 (786-0): 76.4 µM (inactive); GI50 (U-251): > 100 µM (inactive); GI50 (SR): 37.3 µM (inactive); GI50 (SK-MEL-5): > 100 µM (inactive); GI50 (TK-10): > 100 µM (inactive); GI50 (SW-620): > 100 µM (inactive); GI50 (Hs-578T): 95.7 µM (inactive); GI50 (A498): > 100 µM (inactive); GI50 (EKVX): 20.8 µM (inactive); GI50 (OVCAR-3): > 100 µM (inactive); GI50 (SNB-19): > 100 µM (inactive); GI50 (MCF7): > 100 µM (inactive); GI50 (COLO 205): > 100 µM (inactive)

Q: What does the source list for N#Cc1ccc(Oc2nc3ccccc3nc2C(=O)O)cc1?
A: GI50 (SNB-75): > 100 µM (inactive); GI50 (HOP-92): > 100 µM (inactive); GI50 (OVCAR-4): > 100 µM (inactive); GI50 (OVCAR-5): > 100 µM (inactive); GI50 (MDA-MB-435): > 100 µM (inactive); GI50 (SK-MEL-2): > 100 µM (inactive); GI50 (786-0): > 100 µM (inactive); GI50 (U-251): > 100 µM (inactive); GI50 (SR): > 100 µM (inactive); GI50 (SK-MEL-5): > 100 µM (inactive); GI50 (TK-10): > 100 µM (inactive); GI50 (SW-620): > 100 µM (inactive); GI50 (Hs-578T): > 100 µM (inactive); GI50 (A498): > 100 µM (inactive); GI50 (EKVX): > 100 µM (inactive); GI50 (OVCAR-3): > 100 µM (inactive); GI50 (SNB-19): > 100 µM (inactive); GI50 (COLO 205): > 100 µM (inactive)

Q: Which results are given for O=c1/c(=C/c2ccccc2[N+](=O)[O-])sc2nnc(-c3ccco3)n12?
A: GI50 (SNB-75): 25.8 µM (inactive); GI50 (HOP-92): > 100 µM (inactive); GI50 (OVCAR-4): 22.4 µM (inactive); GI50 (OVCAR-5): 50.2 µM (inactive); GI50 (SK-MEL-2): 15.8 µM (inactive); GI50 (786-0): 42 µM (inactive); GI50 (U-251): 21.2 µM (inactive); GI50 (SR): 32.3 µM (inactive); GI50 (SK-MEL-5): 19.1 µM (inactive); GI50 (TK-10): > 100 µM (inactive); GI50 (SW-620): 20.4 µM (inactive); GI50 (A498): > 100 µM (inactive); GI50 (EKVX): 36.2 µM (inactive); GI50 (OVCAR-3): 17.7 µM (inactive); GI50 (SNB-19): 22.4 µM (inactive); GI50 (COLO 205): 30.4 µM (inactive)

Q: For O=C1c2ccccc2NC(=O)C2C1C(c1ccccc1)CC2(O)c1ccccc1 (stereo not drawn), which GI50 (SNB-75) is on record?
A: 0.0128 µM (active)

Q: And the GI50 (HOP-92)?
A: 9.89 µM (inactive)

Q: What about the GI50 (OVCAR-4) of the same molecule?
A: 17.7 µM (inactive)

Q: What about the GI50 (OVCAR-5) of the same molecule?
A: > 100 µM (inactive)

Q: What about the GI50 (MDA-MB-435) of the same molecule?
A: > 100 µM (inactive)

Q: And the GI50 (SK-MEL-2)?
A: 21.9 µM (inactive)

Q: And the GI50 (786-0)?
A: 69.5 µM (inactive)

Q: And the GI50 (SR)?
A: 70.3 µM (inactive)

Q: What about the GI50 (SK-MEL-5) of the same molecule?
A: 84.5 µM (inactive)

Q: What about the GI50 (TK-10) of the same molecule?
A: 39.3 µM (inactive)

Q: What about the GI50 (SW-620) of the same molecule?
A: 50.8 µM (inactive)

Q: What about the GI50 (Hs-578T) of the same molecule?
A: 34.5 µM (inactive)

Q: What about the GI50 (A498) of the same molecule?
A: > 100 µM (inactive)

Q: What about the GI50 (EKVX) of the same molecule?
A: > 100 µM (inactive)

Q: What about the GI50 (OVCAR-3) of the same molecule?
A: 31.6 µM (inactive)

Q: And the GI50 (SNB-19)?
A: 35.2 µM (inactive)

Q: And the GI50 (MCF7)?
A: > 100 µM (inactive)

Q: And the GI50 (COLO 205)?
A: 17.5 µM (inactive)

Q: Which results are given for CCOC(=O)c1ccc2nc(NC(=O)COC(=O)CSc3nc(C)cc(C)n3)sc2c1?
A: GI50 (SNB-75): 16.4 µM (inactive); GI50 (HOP-92): 24.8 µM (inactive); GI50 (OVCAR-4): 42.9 µM (inactive); GI50 (OVCAR-5): 20.4 µM (inactive); GI50 (MDA-MB-435): > 100 µM (inactive); GI50 (SK-MEL-2): > 100 µM (inactive); GI50 (786-0): 97.1 µM (inactive); GI50 (U-251): 48.6 µM (inactive); GI50 (SR): 52.7 µM (inactive); GI50 (SK-MEL-5): 53.3 µM (inactive); GI50 (TK-10): 29.3 µM (inactive); GI50 (SW-620): > 100 µM (inactive); GI50 (Hs-578T): 36 µM (inactive); GI50 (A498): 34 µM (inactive); GI50 (EKVX): 18.5 µM (inactive); GI50 (OVCAR-3): 25.3 µM (inactive); GI50 (SNB-19): 37.8 µM (inactive); GI50 (MCF7): 35.9 µM (inactive); GI50 (COLO 205): 99.1 µM (inactive)

Q: How did the GI50 (SNB-75) turn out when COc1cc(/C=C/c2ccc(Br)cc2)cc(OC)c1OC was run?
A: 8.38 µM (inactive)

Q: And the GI50 (HOP-92)?
A: 12.1 µM (inactive)

Q: What about the GI50 (OVCAR-4) of the same molecule?
A: 21.3 µM (inactive)

Q: What about the GI50 (OVCAR-5) of the same molecule?
A: 16.6 µM (inactive)

Q: And the GI50 (SK-MEL-2)?
A: 14.6 µM (inactive)

Q: What about the GI50 (786-0) of the same molecule?
A: 19.9 µM (inactive)

Q: And the GI50 (U-251)?
A: 10.1 µM (inactive)

Q: What about the GI50 (SR) of the same molecule?
A: 16.1 µM (inactive)

Q: What about the GI50 (SK-MEL-5) of the same molecule?
A: 5.9 µM (inactive)

Q: And the GI50 (TK-10)?
A: 21.6 µM (inactive)

Q: What about the GI50 (SW-620) of the same molecule?
A: 7.62 µM (inactive)

Q: What about the GI50 (A498) of the same molecule?
A: 6.71 µM (inactive)

Q: What about the GI50 (EKVX) of the same molecule?
A: 11.2 µM (inactive)

Q: And the GI50 (OVCAR-3)?
A: 7.8 µM (inactive)

Q: What about the GI50 (SNB-19) of the same molecule?
A: 21.1 µM (inactive)

Q: What about the GI50 (COLO 205) of the same molecule?
A: 8.83 µM (inactive)

— ChEMBL document CHEMBL1201862, “PubChem BioAssay data set” (2004)
